No end group written: not given here. *: point of attachment. Octanoyl = CCCCCCCC(=O)*
Tested on: persistently symptomatic concussion patients
Test: Phase 2 study of OXE-103 in persistently symptomatic concussion: PCSS symptom scoring
Type: in vivo, human
Conditions: for PCSS symptom balance_problems / PCSS symptom difficulty_concentrating / PCSS symptom difficulty_remembering / PCSS symptom dizziness / PCSS symptom drowsiness / PCSS symptom fatigue / PCSS symptom feeling_in_a_fog / PCSS symptom feeling_more_emotional / PCSS symptom feeling_slowed_down / PCSS symptom headache / PCSS symptom irritability / PCSS symptom nausea / PCSS symptom neck_pain / PCSS symptom nervous_anxious / PCSS symptom numbness_or_tingling / PCSS symptom sadness / PCSS symptom sensitivity_to_light / PCSS symptom sensitivity_to_noise / PCSS symptom sleeping_less_than_usual / PCSS symptom sleeping_more_than_usual / PCSS symptom trouble_falling_asleep / PCSS symptom visual_problems / PCSS symptom vomiting: aggregated; for 20% Responders - PCSS: Number of Responders / 20% Responders - PCSS: Responder % / 30% Responders - PCSS: Number of Responders / 30% Responders - PCSS: Responder %: Treated, 13 subjects
Text: Describe the change in symptom burden in sub-acute concussion for the two groups. A maximum of 50 subjects are enrolled, but recruiting stops if each arm has 20 participants, diagnosed with persistent concussion symptoms 28 days post injury who complete the study. Patients are randomized 1:1 to placebo versus OXE-103. The Post-Concussion Symptom Score questionnaire (PCSS) is used as an overall measure of symptom burden. The number of symptoms and severity at each time point are also measures of interest. In addition, subjects are asked to identify and rank the 4 most bothersome symptoms. Without being bound by theory, it is hypothesized that changes in these most bothersome symptoms have a higher correlation to improvement in quality of life. A visual comparison of change in the two groups is made. A change of 20% is considered to be clinically meaningful. This primary aim describes the change in symptoms between day 1 and day 14.
Described herein is a randomized, double-blind, placebo-controlled design where 40 subjects will be randomized to either a placebo cohort or a treatment with OXE-103 cohort. We randomize using the RedCap database. The database is set up to share randomization allocation only with the investigational pharmacy. All subjects are consented and begin the screening period within 28 days post-injury. There is a 7-day screening period prior to randomization and commencement of study treatment to allow for assessment of stability of symptom burden. This screening period must start no later than 28 days post-injury. Starting with Day 1 (end of screening period), the treatment cohort receives OXE-103 40ug/kg SC twice daily by self-injection and the placebo group receives a placebo injection SC twice daily. Study drug and placebo are maintained and dispensed by Investigational Pharmacy. Subjects receive an 8-day supply of syringes pre-loaded with OXE-103 or placebo. Each cohort receives the 2nd set of syringes with OXE-103 or placebo at the day 7 visit. No therapies other than OXE-103 are administered during the 14-day treatment period to either cohort. After completion of 14 days of either placebo or OXE-103 treatment, starting with the Day 14 visit, other medications and therapies can be initiated for either cohort as needed.
Symptom reduction (AIM 1): Our primary goal is to describe the change in number of symptoms and/or severity in sub-acute concussion with treatment with OXE-103 using the PCSS at days 1 and 15. We will also collect data at days 21 and 44 to potentially describe long term changes and potential lasting effect (AIM 4).
Subjects complete the PCSS at the following timepoints[17]: upon signing consent (score must 20) (day −7), mid-way through the screening period (day −3), prior to assignment of a treatment cohort (score must 20) (day 1), as well as days 4, 8, 11, 15, 21 and 44. Subjects are instructed to record their symptoms at the same time of day for each assessment timepoint. There can be a two-hour window either way. (e.g. 12 PM+/−2 hrs.) The PCSS is recorded via a RedCap survey. The PCSS is a self-reported assessment of 22 symptoms using a Likert-type scale ranging from 0-6, with 0 indicating no difficulty with the outlined symptom and ratings of 1-6 representing mild-to-severe difficulty with the symptom. The reliability and validity of the PCSS are well documented We also ask subjects to rank their 4 most burdensome symptoms (4MBS) at Day 1 and we analyze these separately. As stated in the Specific Aims the purpose of this study is to collect data that would further refine clinical endpoints that could be used for larger Phase 2 studies and possibly lead to the establishment of pivotal endpoints for Phase 3 registration trials. The 22 symptom PCSS assessment is designed to cover the full spectrum of concussion related symptoms across cognitive, emotional and somatic domains. In that regard the PCSS is particularly useful for diagnosis and monitoring recovery of patients post injury. […]

## ghrelin (GSS(Octanoyl)FLSPEHQRVQQRKESKKPPAKLQPR; UniProt Q9UBU3 24-51, looked up) [OXE-103, naturally occurring peptide comprising 28 amino acids that include an N-octanoyl group at the 3-position of serine]
Day 1, OXE-103 Treated
  PCSS symptom balance_problems: 30
  PCSS symptom difficulty_concentrating: 46
  PCSS symptom difficulty_remembering: 48
  PCSS symptom dizziness: 37
  PCSS symptom drowsiness: 38
  PCSS symptom fatigue: 43
  PCSS symptom feeling_in_a_fog: 46
  PCSS symptom feeling_more_emotional: 31
  PCSS symptom feeling_slowed_down: 46
  PCSS symptom headache: 37
  PCSS symptom irritability: 35
  PCSS symptom nausea: 18
  PCSS symptom neck_pain: 38
  PCSS symptom nervous_anxious: 35
  PCSS symptom numbness_or_tingling: 16
  PCSS symptom sadness: 28
  PCSS symptom sensitivity_to_light: 35
  PCSS symptom sensitivity_to_noise: 36
  PCSS symptom sleeping_less_than_usual: 15
  PCSS symptom sleeping_more_than_usual: 24
  PCSS symptom trouble_falling_asleep: 37
  PCSS symptom visual_problems: 30
  PCSS symptom vomiting: 2
Day 1
  20% Responders - PCSS: Number of Responders: 0
  20% Responders - PCSS: Responder %: 0%
  30% Responders - PCSS: Number of Responders: 0
  30% Responders - PCSS: Responder %: 0%
Day 4, OXE-103 Treated
  PCSS symptom balance_problems: 25
  PCSS symptom difficulty_concentrating: 37
  PCSS symptom difficulty_remembering: 35
  PCSS symptom dizziness: 35
  PCSS symptom drowsiness: 39
  PCSS symptom fatigue: 44
  PCSS symptom feeling_in_a_fog: 30
  PCSS symptom feeling_more_emotional: 24
  PCSS symptom feeling_slowed_down: 33
  PCSS symptom headache: 29
  PCSS symptom irritability: 30
  PCSS symptom nausea: 11
  PCSS symptom neck_pain: 29
  PCSS symptom nervous_anxious: 25
  PCSS symptom numbness_or_tingling: 6
  PCSS symptom sadness: 17
  PCSS symptom sensitivity_to_light: 25
  PCSS symptom sensitivity_to_noise: 26
  PCSS symptom sleeping_less_than_usual: 23
  PCSS symptom sleeping_more_than_usual: 32
  PCSS symptom trouble_falling_asleep: 32
  PCSS symptom visual_problems: 18
  PCSS symptom vomiting: 1
Day 4
  20% Responders - PCSS: Number of Responders: 4
  20% Responders - PCSS: Responder %: 31%
  30% Responders - PCSS: Number of Responders: 3
  30% Responders - PCSS: Responder %: 23%
Day 8, OXE-103 Treated
  PCSS symptom balance_problems: 30
  PCSS symptom difficulty_concentrating: 41
  PCSS symptom difficulty_remembering: 35
  PCSS symptom dizziness: 28
  PCSS symptom drowsiness: 41
  PCSS symptom fatigue: 45
  PCSS symptom feeling_in_a_fog: 34
  PCSS symptom feeling_more_emotional: 33
  PCSS symptom feeling_slowed_down: 36
  PCSS symptom headache: 34
  PCSS symptom irritability: 36
  PCSS symptom nausea: 15
  PCSS symptom neck_pain: 26
  PCSS symptom nervous_anxious: 34
  PCSS symptom numbness_or_tingling: 12
  PCSS symptom sadness: 32
  PCSS symptom sensitivity_to_light: 20
  PCSS symptom sensitivity_to_noise: 23
  PCSS symptom sleeping_less_than_usual: 32
  PCSS symptom sleeping_more_than_usual: 20
  PCSS symptom trouble_falling_asleep: 32
  PCSS symptom visual_problems: 23
  PCSS symptom vomiting: 1
Day 8
  20% Responders - PCSS: Number of Responders: 3
  20% Responders - PCSS: Responder %: 23%
  30% Responders - PCSS: Number of Responders: 2
  30% Responders - PCSS: Responder %: 15%
Day 11, OXE-103 Treated
  PCSS symptom balance_problems: 24
  PCSS symptom difficulty_concentrating: 23
  PCSS symptom difficulty_remembering: 28
  PCSS symptom dizziness: 18
  PCSS symptom drowsiness: 33
  PCSS symptom fatigue: 36
  PCSS symptom feeling_in_a_fog: 23
  PCSS symptom feeling_more_emotional: 20
  PCSS symptom feeling_slowed_down: 27
  PCSS symptom headache: 21
  PCSS symptom irritability: 28
  PCSS symptom nausea: 10
  PCSS symptom neck_pain: 18
  PCSS symptom nervous_anxious: 19
  PCSS symptom numbness_or_tingling: 5
  PCSS symptom sadness: 22
  PCSS symptom sensitivity_to_light: 18
  PCSS symptom sensitivity_to_noise: 19
  PCSS symptom sleeping_less_than_usual: 15
  PCSS symptom sleeping_more_than_usual: 19
  PCSS symptom trouble_falling_asleep: 21
  PCSS symptom visual_problems: 12
  PCSS symptom vomiting: 1
Day 11
  20% Responders - PCSS: Number of Responders: 9
  20% Responders - PCSS: Responder %: 69%
  30% Responders - PCSS: Number of Responders: 7
  30% Responders - PCSS: Responder %: 54%
Day 15, OXE-103 Treated
  PCSS symptom balance_problems: 22
  PCSS symptom difficulty_concentrating: 30
  PCSS symptom difficulty_remembering: 26
  PCSS symptom dizziness: 21
  PCSS symptom drowsiness: 25
  PCSS symptom fatigue: 30
  PCSS symptom feeling_in_a_fog: 20
  PCSS symptom feeling_more_emotional: 22
  PCSS symptom feeling_slowed_down: 23
  PCSS symptom headache: 25
  PCSS symptom irritability: 25
  PCSS symptom nausea: 6
  PCSS symptom neck_pain: 20
  PCSS symptom nervous_anxious: 23
  PCSS symptom numbness_or_tingling: 5
  PCSS symptom sadness: 21
  PCSS symptom sensitivity_to_light: 18
  PCSS symptom sensitivity_to_noise: 16
  PCSS symptom sleeping_less_than_usual: 22
  PCSS symptom sleeping_more_than_usual: 15
  PCSS symptom trouble_falling_asleep: 25
  PCSS symptom visual_problems: 17
  PCSS symptom vomiting: 1
Day 15
  20% Responders - PCSS: Number of Responders: 9
  20% Responders - PCSS: Responder %: 69%
  30% Responders - PCSS: Number of Responders: 7
  30% Responders - PCSS: Responder %: 54%
Day 21, OXE-103 Treated
  PCSS symptom balance_problems: 23
  PCSS symptom difficulty_concentrating: 24
  PCSS symptom difficulty_remembering: 26
  PCSS symptom dizziness: 23
  PCSS symptom drowsiness: 26
  PCSS symptom fatigue: 28
  PCSS symptom feeling_in_a_fog: 24
  PCSS symptom feeling_more_emotional: 19
  PCSS symptom feeling_slowed_down: 26
  PCSS symptom headache: 23
  PCSS symptom irritability: 21
  PCSS symptom nausea: 12
  PCSS symptom neck_pain: 21
  PCSS symptom nervous_anxious: 16
  PCSS symptom numbness_or_tingling: 6
  PCSS symptom sadness: 14
  PCSS symptom sensitivity_to_light: 21
  PCSS symptom sensitivity_to_noise: 18
  PCSS symptom sleeping_less_than_usual: 19
  PCSS symptom sleeping_more_than_usual: 15
  PCSS symptom trouble_falling_asleep: 24
  PCSS symptom visual_problems: 19
  PCSS symptom vomiting: 0
Day 21
  20% Responders - PCSS: Number of Responders: 9
  20% Responders - PCSS: Responder %: 69%
  30% Responders - PCSS: Number of Responders: 8
  30% Responders - PCSS: Responder %: 62%
Day 44, OXE-103 Treated
  PCSS symptom balance_problems: 12
  PCSS symptom difficulty_concentrating: 16
  PCSS symptom difficulty_remembering: 21
  PCSS symptom dizziness: 9
  PCSS symptom drowsiness: 16
  PCSS symptom fatigue: 17
  PCSS symptom feeling_in_a_fog: 16
  PCSS symptom feeling_more_emotional: 7
  PCSS symptom feeling_slowed_down: 18
  PCSS symptom headache: 15
  PCSS symptom irritability: 10
  PCSS symptom nausea: 7
  PCSS symptom neck_pain: 14
  PCSS symptom nervous_anxious: 11
  PCSS symptom numbness_or_tingling: 6
  PCSS symptom sadness: 8
  PCSS symptom sensitivity_to_light: 9
  PCSS symptom sensitivity_to_noise: 13
  PCSS symptom sleeping_less_than_usual: 11
  PCSS symptom sleeping_more_than_usual: 8
  PCSS symptom trouble_falling_asleep: 16
  PCSS symptom visual_problems: 9
  PCSS symptom vomiting: 1
Day 44
  20% Responders - PCSS: Number of Responders: 11
  20% Responders - PCSS: Responder %: 85%
  30% Responders - PCSS: Number of Responders: 9
  30% Responders - PCSS: Responder %: 69%
Aggregated across 11 OXE-103 treatment responders per symptom
  PCSS symptoms, change from Day 1 to Day 44 (FIG. 14): reduction in all symptoms
reduction, OXE-103 Treated
  balance_problems % change from day 1 to day 44: 60%
  difficulty_concentrating % change from day 1 to day 44: 65%
  difficulty_remembering % change from day 1 to day 44: 56%
  dizziness % change from day 1 to day 44: 76%
  drowsiness % change from day 1 to day 44: 58%
  fatigue % change from day 1 to day 44: 60%
  feeling_in_a_fog % change from day 1 to day 44: 65%
  feeling_more_emotional % change from day 1 to day 44: 77%
  feeling_slowed_down % change from day 1 to day 44: 61%
  headache % change from day 1 to day 44: 59%
  irritability % change from day 1 to day 44: 71%
  nausea % change from day 1 to day 44: 61%
  neck_pain % change from day 1 to day 44: 63%
  nervous_anxious % change from day 1 to day 44: 69%
  numbness_or_tingling % change from day 1 to day 44: 63%
  sadness % change from day 1 to day 44: 71%
  sensitivity_to_light % change from day 1 to day 44: 74%
  sensitivity_to_noise % change from day 1 to day 44: 64%
  sleeping_less_than_usual % change from day 1 to day 44: 27%
  sleeping_more_than_usual % change from day 1 to day 44: 67%
  trouble_falling_asleep % change from day 1 to day 44: 57%
  visual_problems % change from day 1 to day 44: 70%
  vomiting % change from day 1 to day 44: 50%
